Reference: patent US8377884B2, “Variants of C-type natriuretic peptides” (Biomarin Pharmaceutical Inc., priority 2007, dated 2013)
Where two headings read alike, the source gives them in different places. Bridge positions count the residues as written; N and C are the ends. Ends that are not written are not given here. Peptide text beside a SMILES is read from it. * marks the point of attachment. Heptanoyl = CCCCCCC(=O)*

Tests used:
[1] = target: neutral endopeptidase (NEP) (Homo sapiens, UniProt P08473); assay: in vitro; conditions: human, pH 7
neutral endopeptidase (NEP), sequence (P08473 whole entry): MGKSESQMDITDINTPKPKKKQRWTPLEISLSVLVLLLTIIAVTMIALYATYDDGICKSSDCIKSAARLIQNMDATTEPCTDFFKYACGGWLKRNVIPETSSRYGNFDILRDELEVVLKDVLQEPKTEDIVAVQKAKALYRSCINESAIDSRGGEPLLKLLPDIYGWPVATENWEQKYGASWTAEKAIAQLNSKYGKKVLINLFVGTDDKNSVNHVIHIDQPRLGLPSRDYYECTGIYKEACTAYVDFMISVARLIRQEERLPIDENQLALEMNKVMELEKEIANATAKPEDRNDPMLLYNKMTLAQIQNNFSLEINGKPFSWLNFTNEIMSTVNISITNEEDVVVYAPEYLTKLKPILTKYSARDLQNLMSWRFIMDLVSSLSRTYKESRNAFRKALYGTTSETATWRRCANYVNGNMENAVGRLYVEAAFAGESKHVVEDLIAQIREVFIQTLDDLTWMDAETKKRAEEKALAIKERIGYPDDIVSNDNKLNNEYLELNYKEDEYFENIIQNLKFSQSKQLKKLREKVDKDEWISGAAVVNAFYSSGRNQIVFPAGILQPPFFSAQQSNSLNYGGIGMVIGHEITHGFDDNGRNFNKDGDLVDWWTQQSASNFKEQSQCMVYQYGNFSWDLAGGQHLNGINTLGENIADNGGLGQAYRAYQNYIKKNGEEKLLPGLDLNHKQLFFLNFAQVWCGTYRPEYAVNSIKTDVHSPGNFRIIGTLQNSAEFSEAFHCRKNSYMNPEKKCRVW
Method: To determine the effects of amino acid substitutions, amino acid extensions, backbone modifications, side chain modifications and PEGylation on the susceptibility of CNP variants to neutral endopeptidase (NEP) cleavage, peptide cleavage assays were carried out using an in vitro assay that monitored disappearance of the non-cleaved CNP variant.
Recombinant human NEP (1 ug/mL final concentration) was added to 100 uM CNP variant diluted in 0.1 M Tris, pH 7. The reaction mixture was incubated at 37° C. for various periods of time, and the reaction was quenched with EDTA (10 mM final) followed by heat denaturation. The reaction mixture was reduced and then the reaction products were analyzed using HPLC and mass spectroscopy. The half-life of the CNP variant was calculated based on the disappearance of intact CNP variant over time.

NPR-B = target: T1, NPR-B (Mus musculus, UniProt Q6VVW5); assay: Stimulation of cGMP production in NIH3T3 cells; format: cell-based, Murine; conditions: for cGMP response relative to 1 uM CNP22 (%) at 0.01 µM: read-out: cGMP Response rel. to 1 uM CNP22, 10 nM; for cGMP response relative to 1 uM CNP22 (%) at 1 µM: read-out: cGMP Response rel. to 1 uM CNP22, 1 uM
T1 construct: Murine NIH3T3 cells express endogenously the CNP signaling receptor, NPR-B; endogenous in cells; host or cells: NIH3T3 (murine fibroblasts)
T1 sequence (Q6VVW5 17-1047): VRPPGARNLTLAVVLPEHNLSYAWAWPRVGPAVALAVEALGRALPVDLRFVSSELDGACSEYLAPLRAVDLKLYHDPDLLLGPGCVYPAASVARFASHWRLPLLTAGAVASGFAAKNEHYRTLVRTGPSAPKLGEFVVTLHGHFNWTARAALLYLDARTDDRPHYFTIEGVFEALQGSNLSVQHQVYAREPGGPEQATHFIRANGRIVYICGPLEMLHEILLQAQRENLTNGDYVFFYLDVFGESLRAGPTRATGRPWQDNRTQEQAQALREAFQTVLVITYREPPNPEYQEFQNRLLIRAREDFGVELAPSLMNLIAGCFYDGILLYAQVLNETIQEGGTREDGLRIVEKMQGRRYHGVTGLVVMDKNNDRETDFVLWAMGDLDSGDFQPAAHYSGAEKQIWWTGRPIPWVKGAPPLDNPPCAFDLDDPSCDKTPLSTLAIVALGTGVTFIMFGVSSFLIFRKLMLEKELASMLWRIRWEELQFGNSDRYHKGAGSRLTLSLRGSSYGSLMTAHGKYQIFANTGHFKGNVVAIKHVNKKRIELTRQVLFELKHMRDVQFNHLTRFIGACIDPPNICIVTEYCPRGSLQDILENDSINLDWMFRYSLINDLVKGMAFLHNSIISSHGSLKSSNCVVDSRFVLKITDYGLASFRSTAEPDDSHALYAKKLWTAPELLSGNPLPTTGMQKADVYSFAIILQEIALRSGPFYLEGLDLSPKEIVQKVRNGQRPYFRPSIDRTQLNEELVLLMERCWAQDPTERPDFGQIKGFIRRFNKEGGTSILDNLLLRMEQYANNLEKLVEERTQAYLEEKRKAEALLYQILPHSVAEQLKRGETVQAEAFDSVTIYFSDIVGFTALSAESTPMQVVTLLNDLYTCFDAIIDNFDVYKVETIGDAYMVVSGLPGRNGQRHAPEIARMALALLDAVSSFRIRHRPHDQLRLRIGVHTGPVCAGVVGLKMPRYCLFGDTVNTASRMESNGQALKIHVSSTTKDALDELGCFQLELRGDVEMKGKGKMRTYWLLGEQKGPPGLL

[2] = NIH3T3 cells, 10 nM natriuretic peptide, normalized to cell number and cGMP production with 1 uM wtCNP22
[3] = NIH3T3 cells, 1 uM natriuretic peptide, normalized to cell number and cGMP production with 1 uM wtCNP22

Compound | half-life at 100 uM [1] [h] | cGMP response relative to 1 uM CNP22 (%) at 0.01 µM (NPR-B; [2]) [%] | cGMP response relative to 1 uM CNP22 (%) at 1 µM (NPR-B; [3]) [%] | half-life at 100 uM ([1]; recombinant human neutral endopeptidase (NEP)) [h] | cGMP response relative to 1 uM CNP22 (%) at 0.01 µM (NPR-B; NIH3T3, […]) [%] | cGMP response relative to 1 uM CNP22 (%) at 1 µM (NPR-B; NIH3T3, […]) [%]
CCCCCCC(=O)N[C@@H](CCC(=O)O)C(=O)N[C@@H](CC(C)C)C(=O)N[C@@H](CO)C(=O)N[C@@H](CCCCN)C(=O)NCC(=O)N[C@H]1CSSC[C@@H](C(=O)O)NC(=O)CNC(=O)[C@H](CC(C)C)NC(=O)CNC(=O)[C@H](CO)NC(=O)[C@H](CCSC)NC(=O)[C@H](CO)NC(=O)CNC(=O)[C@H]([C@@H](C)CC)NC(=O)[C@H](CCCNC(=N)N)NC(=O)[C@H](CC(=O)O)NC(=O)[C@H](CC(C)C)NC(=O)[C@H](CCCCN)NC(=O)[C@H](CC(C)C)NC(=O)CNC(=O)[C@H](Cc2ccccc2)NC1=O [BB] (Heptanoyl-ELSKGCFGLKLDRIGSMSGLGC-OH; disulfide 6-22 (inferred); C-terminus assumed) | 0.75 to 1.08 |  |  |  | 32 ± 4 | 84 ± 19
CC[C@H](C)[C@@H]1NC(=O)[C@H](CCCNC(=N)N)NC(=O)[C@H](CC(=O)O)NC(=O)[C@H](CC(C)C)NC(=O)[C@H](CCCCN)NC(=O)[C@H](CC(C)C)NC(=O)CNC(=O)[C@H](Cc2ccccc2)NC(=O)[C@@H](NC(=O)CNC(=O)[C@H](CCCNC(=N)N)NC(=O)[C@H](CO)NC(=O)[C@H](CC(C)C)NC(=O)CNC(=O)[C@H](CCCNC(=N)N)NC(=O)[C@@H](N)CCC(=O)O)CSSC[C@@H](C(=O)O)NC(=O)CNC(=O)[C@H](CC(C)C)NC(=O)CNC(=O)[C@H](CO)NC(=O)[C@H](CCSC)NC(=O)[C@H](CO)NC(=O)CNC1=O [BA] (H-ERGLSRGCFGLKLDRIGSMSGLGC-OH; disulfide 8-24 (inferred); N-terminus and C-terminus assumed) | 1.5 | 38 ± 10 | 113 ± 10 |  |  | 

Second part, led by results:

half-life at 100 uM [1] [h] | cGMP response relative to 1 uM CNP22 (%) at 0.01 µM (NPR-B; [2]) [%] | cGMP response relative to 1 uM CNP22 (%) at 1 µM (NPR-B; [3]) [%] | half-life at 100 uM ([1]; recombinant human neutral endopeptidase (NEP)) [h] | Compound | cGMP response relative to 1 uM CNP22 (%) at 0.01 µM (NPR-B; NIH3T3, […]) [%] | cGMP response relative to 1 uM CNP22 (%) at 1 µM (NPR-B; NIH3T3, […]) [%]
> 2.67 | 34 | 101 |  | CC[C@H](C)[C@@H]1NC(=O)[C@H](CCCNC(=N)N)NC(=O)[C@H](CC(=O)O)NC(=O)[C@H](CC(C)C)NC(=O)[C@H](CCCCN)NC(=O)[C@H](CC(C)C)NC(=O)CNC(=O)[C@H](Cc2ccccc2)NC(=O)[C@@H](NC(=O)CNC(=O)[C@H](CCCCN)NC(=O)[C@H](CO)NC(=O)[C@H](CC(C)C)NC(=O)CNC(=O)[C@H](CCCNC(=N)N)NC(=O)[C@H](C)NC(=O)[C@H](Cc2c[nH]c3ccccc23)NC(=O)[C@H](C)NC(=O)[C@H](C)NC(=O)[C@H](CCCNC(=N)N)NC(=O)[C@H](CO)NC(=O)[C@H](CCCCN)NC(=O)[C@@H](NC(=O)[C@H](CC(=O)O)NC(=O)[C@@H](NC(=O)[C@H](CCCNC(=N)N)NC(=O)[C@H](CC(C)C)NC(=O)[C@@H](N)CC(=O)O)C(C)C)[C@@H](C)O)CSSC[C@@H](C(=O)O)NC(=O)CNC(=O)[C@H](CC(C)C)NC(=O)CNC(=O)[C@H](CO)NC(=O)[C@H](CCSC)NC(=O)[C@H](CO)NC(=O)CNC1=O [CC] (H-DLRVDTKSRAAWARGLSKGCFGLKLDRIGSMSGLGC-OH; disulfide 20-36 (inferred); N-terminus and C-terminus assumed) |  | 
> 2.67 | 61 | 101 |  | DLRVDTKSRAAWARLLQEHPNARKYKGANKKGLSKGCFGLKLDRIGSMSGLGC (disulfide 37-53) [BM] |  | 
 | 11 ± 2 | 66 ± 16 | 1.33 | CC[C@H](C)[C@@H]1NC(=O)[C@H](CCCNC(=N)N)NC(=O)[C@H](CC(=O)O)NC(=O)[C@H](CC(C)C)NC(=O)[C@H](CCCCN)NC(=O)[C@H](CC(C)C)NC(=O)[C@H]([C@@H](C)O)NC(=O)[C@H](Cc2ccccc2)NC(=O)[C@@H](NC(=O)CNC(=O)[C@H](CCCNC(=N)N)NC(=O)[C@H](CO)NC(=O)[C@H](CC(C)C)NC(=O)CN)CSSC[C@@H](C(=O)O)NC(=O)CNC(=O)[C@H](CC(C)C)NC(=O)CNC(=O)[C@H](CO)NC(=O)[C@H](CCSC)NC(=O)[C@H](CO)NC(=O)CNC1=O [AC] (H-GLSRGCFTLKLDRIGSMSGLGC-OH; disulfide 6-22 (inferred); N-terminus and C-terminus assumed) |  | 
